We go through one molecule from patent US20060183147A1, “Methods of identifying genes which modulate myelination” (Elan Pharmaceuticals, Inc., priority 2005, published 2006).

The subject of test [1] is MOG surface expression in optic nerve oligodendrocytes. Briefly: MOG cell surface label, optic nerve oligodendrocytes. It counts as cell-based, rat. The following applies: after 6 days; control oligodendrocytes up-regulated MOG. The method, then:
(§1) Purified rat optic nerve and enriched rat cortical oligodendrocytes were first grown in mitogenic medium and then switched to differentiation medium. Stimulated oligodendrocytes received the ADORA1 agonist, MECA, 24 hours later. Optic nerve oligodendrocytes were assessed 2, 4, and 6 days post MECA treatment, cortical oligodendrocytes, 3, 5, and 7 days post treatment. For the MOG cell surface label, cells were incubated with the anti-MOG antibody (1 μg/ml) for one hour at room temperature in phosphate buffered saline (PBS) containing sodium-pyruvate and glucose (Invitrogen) to ensure survival of cells during this time. Subsequently the cells were fixed, incubated in PBS containing 50% goat serum at RT for 30 minutes and incubated with a secondary antibody (FITC- or Cy3-coupled goat anti-mouse IgG antibody from Jackson Immunoresearch).

In test [2] the test system is cortical oligodendrocytes. Briefly: Gene expression profiling (Affymetrix Rat 230 2.0), control vs 1-day MECA stimulated cortical oligodendrocytes. The test is classed as cell-based. From the text: As a second filter to determine which genes were commonly regulated between pure optic nerve and enriched cortical oligodendrocytes, gene expression analysis comparing non-myelinating cortical oligodendrocytes with 1-day MECA induced cortical oligodendrocytes committed to myelination was made. Since cortical oligodendrocyte cell preparations yield larger numbers of cells, determining overlap between 1-day MECA treated ON-oligodendrocytes and 1-day MECA treated cortical oligodendrocytes help determine if use of cortical oligodendrocytes for future experiments to test genes of interest is a feasible option. Cortical oligodendrocytes were isolated from 2 litters of newborn SD rat pups. RNA for replicates were isolated from the cells which were plated on 3 separate 6-well tissue culture plates (approximately 500,000 cells per well) with control and treated cells included in separate wells on each plate. The important caveat to keep in mind when comparing gene expression in cortical oligodendrocytes with ON-oligodendrocytes is that the cortical oligodendrocytes are not a pure cell population. Cortical oligodendrocytes comprise approximately 80% oligodendrocytes and about 20% astrocytes, with some neuronal cells. Total RNA was generated in triplicate and hybridized to Affymetrix GeneChip™ Rat 230 2.0 arrays with approximately 30,000 genes. RNA submitted for analysis was amplified using the MessageAmp II aRNA kit from Ambion to generate sufficient amounts of RNA for hybridization to arrays and to keep sample preparation conditions similar to 1-day control and MECA treated ON-oligodendrocytes set forth elsewhere herein. Table 2 provides a summary of differentially regulated genes from comparison of control and 1-day MECA stimulated cortical oligodendrocytes.

Test [3] has as its system MOG surface expression in cortical oligodendrocytes. Description: MOG cell surface label, cortical oligodendrocytes (time course and dose response). It counts as cell-based, rat. The method, then:
as §1
To determine whether the surface expression of MOG would follow the same time course as that observed for the ADORA1 agonist, MECA, in the optic nerve myelination system, oligodendrocyte-enriched cortical cells were plated on PEI-coated plates in mitogenic medium, containing PDGFAA, and NT3 as factors stimulating proliferation. After 3 days, cells were switched to differentiation medium containing CNTF and NT3. 200 μM MECA was added either the same day or 24 hours later and was incubated on the cells for 24 hours, 48 hours, 72 hours, 4 days, and 7 days continuously. The cells were surface-labeled with an antibody to MOG, after the described incubation. For the ADORA1 agonist dose response experiment, MECA was added at concentrations of 200 μM, 100 μM, 50 μM, 25 μM and 12.5 μM, 24 hours after switching to differentiation medium, and was incubated on the cells continuously. On day 7, cells were surface-labeled with an anti-MOG antibody.

Test [4] deals with optic nerve oligodendrocytes. Briefly: Gene expression profiling, control vs 1-day MECA-treated ON-oligodendrocytes. The test is classed as cell-based, rat. To be noted: p-value <0.05, 1.2 fold-change cutoff. The protocol: Based on the results obtained with rhoA expression, 24 hours was selected as the first time point in a broader gene expression analysis. Total RNA was isolated from control, and MECA-stimulated oligodendrocytes were harvested 24 hours after the addition of MECA. RNA samples were generated in triplicate, each replicate generated by pooling RNA from three separate oligodendrocyte preps (one prep from 12 litters (10 pups each) of post-natal day 5 SD pups). RNA samples were analyzed by gene expression profiling using the Affymetrix GeneChip™ Rat genome 230 2.0 Array that provides coverage of approximately 30,000 transcripts, i.e., the entire transcribed rat genome. RNA submitted was amplified by Expression Analysis using the MessageAmp II aRNA kit from Ambion to generate sufficient amounts of RNA for hybridization to arrays. A2B5 and cells were plated in 6-well plates and allowed to divide for 48 hours. Approximately 500,000 cells were plated per well. Two micrograms of RNA was subsequently used for analysis.
To identify gene expression changes occurring during myelination, total RNA was isolated from control and MECA-stimulated oligodendrocytes 24 hours after the addition of MECA. RNA samples were generated in triplicate, each replicate generated by pooling RNA from three separate oligodendrocyte preps. RNA samples (2 μg/sample) were submitted to Expression Analysis for gene expression profiling using the Affymetrix GeneChip™ Rat genome 230 2.0 Array that provides coverage of approximately 30,000 transcripts. RNA submitted using the MessageAmp II aRNA kit from Ambion to generate sufficient amounts of RNA for hybridization to arrays.

Take `CNC(=O)[C@H]1O[C@@H](n2cnc3c(N)ncnc32)[C@H](O)[C@@H]1O` [MECA, 5′-N-methylcarboxamidoadenosine]: the “MOG protein expression on the cell surface” value in test [1] is on record as “remained low”. Also, in test [2] (p-value <0.05), the “differentially regulated genes, fold change >1.1 fold” value amounted to 1969 genes; the “differentially regulated genes, fold change >1.2 fold” value was found to be 1425 genes; the “differentially regulated genes, fold change >1.5 fold” value came out at 252 genes; the down-regulated changes is listed as 49%. In test [2] (p-value <0.05), this molecule returned an up-regulated changes of 51%. Moreover, in test [2] (p-value <0.05, 1.2 fold-change cutoff), the “total differentially regulated genes in the group comparison” value was 1339 genes. Besides, the “genes exclusive to cortical oligodendrocytes” value in test [2] (p-value <0.05, 1.2 fold-change cutoff, versus ON-oligodendrocytes) is listed as 925 genes. Also, in test [3] (200 μM MECA), the “time MECA must be present to repress MOG surface expression” value is reported as “at least 72 hours”. In addition, the “MOG protein expression on the cell surface” value in test [3] (after 7 days, control oligodendrocytes up-regulated MOG) was “remained low”. The “concentrations insufficient to repress MOG surface expression” value in test [3] (continuous incubation, surface label on day 7) is given as “below 100 μM”. In addition, in test [4], the “overlap of differentially regulated genes between ON- and cortical oligodendrocytes” value is given as 414 genes; the “total differentially regulated genes in the group comparison” value is recorded as 1831 genes. The “genes exclusive to ON-oligodendrocytes” value in test [4] (versus cortical oligodendrocytes) was 1417 genes.
